Measured values: the supplement of paper PMC11061612

How the values were obtained:
A673 (Ewing's Sarcoma) = experiment: Bliss excess, mean over the matrix (fraction); higher = more synergy
Procedure, shortened: (§1)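 Cell lines in DMEM/F12 or RPMI with 10% FBS were plated in 1536-well plates, held 24 hours at 37°C, 5% CO2, then given two-drug dose matrices for 72 hours (DMSO typically 0.2%). Viability was read by CellTiter-Glo 2.0 luminescence and scaled as inhibition from 0 (vehicle wells) to 1 (blank wells). Combination Emax is the second-highest inhibition in the matrix; Bliss excess is observed combination effect minus expected EA + EB − EA·EB, EA and EB being single-agent effects.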

[1] = system: BE-13 (T-Lymphoblastic Leukemia); experiment: as above
Procedure, shortened: as §1

BPH-1 (Non-Cancerous) = experiment: as above
Procedure, shortened: as §1

CAL-72 (Osteosarcoma) = experiment: as above
Procedure, shortened: as §1

[2] = system: Detroit562 (Head and Neck Carcinoma); experiment: as above
Procedure, shortened: as §1

[3] = system: HeLa (Cervical Carcinoma); experiment: as above
Procedure, shortened: as §1

[4] = system: HuH-7 (Hepatocellular Carcinoma); experiment: as above
Procedure, shortened: as §1

[5] = system: KMRC-20 (Kidney Carcinoma); experiment: as above
Procedure, shortened: as §1

KS-1 (Glioblastoma) [6] = experiment: as above
Procedure, shortened: as §1

[7] = system: KYAE-1 (Esophageal Adenocarcinoma); experiment: as above
Procedure, shortened: as §1

[8] = system: LCLC-97TM1 (Non-Small Cell Lung Carcinoma); experiment: as above
Procedure, shortened: as §1

[9] = system: NCI-H1568 (Lung Adenocarcinoma); experiment: as above
Procedure, shortened: as §1

NCI-H2722 (Mesothelioma) = experiment: as above
Procedure, shortened: as §1

[10] = system: SNU-16 (Gastric Carcinoma); experiment: as above
Procedure, shortened: as §1

[11] = system: SW1573 (Lung Adenocarcinoma); experiment: as above
Procedure, shortened: as §1

[12] = system: HH (T-Cell Non-Hodgkin's Lymphoma); experiment: combination Emax (second highest fraction inhibited in the dose matrix, 72 h); higher = more inhibition; extreme values may be limits of the assay
Procedure, shortened: as §1

KS-1 (Glioblastoma) [13] = experiment: as above
Procedure, shortened: as §1

[14] = system: LCLC-97TM1 (Non-Small Cell Lung Carcinoma); experiment: as above
Procedure, shortened: as §1

[15] = system: LS-123 (Colorectal Carcinoma); experiment: as above
Procedure, shortened: as §1

[16] = system: OE21 (Esophageal Squamous Cell Carcinoma); experiment: as above
Procedure, shortened: as §1
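Throughout, for Bliss excess, mean over the matrix: after 72 h of two-drug dosing.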

Row | SMILES | Bliss excess (A673 (Ewing's Sarcoma)) | Bliss excess [1] | Bliss excess (BPH-1 (Non-Cancerous)) | Bliss excess (CAL-72 (Osteosarcoma)) | Bliss excess [2] | Bliss excess [3] | Bliss excess [4] | Bliss excess [5] | Bliss excess (KS-1 (Glioblastoma) [6]) | Bliss excess [7] | Bliss excess [8] | Bliss excess [9] | Bliss excess (NCI-H2722 (Mesothelioma)) | Bliss excess [10] | Bliss excess [11] | combination Emax [12] | combination Emax (KS-1 (Glioblastoma) [13]) | combination Emax [14] | combination Emax [15] | combination Emax [16]
1 | CC1(C)CCC(CN2CCN(c3ccc(C(=O)NS(=O)(=O)c4ccc(NCC5CCOCC5)c([N+](=O)[O-])c4)c(Oc4cnc5[nH]ccc5c4)c3)CC2)=C(c2ccc(Cl)cc2)C1 [Venetoclax] + CN(C)CCCOc1ccc(-c2ccc3ncc4c(c3c2)n(C2CCOCC2)c(=O)n4C)cn1 [AZD0156] (first compound max 1 µM, 7x7, partner max 1 µM) | 0.0265 | 0.0084 | -0.0214 | -0.0002 | -0.0214 | -0.0178 | 0.0028 | -0.0023 | -0.007 | -0.0166 | -0.0466 | -0.0166 | -0.081 | -0.0015 | -0.0553 | 0.18 | 0.224 | 0.105 | 0.205 | 0.162
2 | Cc1c2c(nn1C)CSCc1cc(n(C)n1)CSc1cc(c3ccccc3c1)OCCCc1c(C(=O)O)n(C)c3c-2c(Cl)ccc13 [AZD5991] + C1CN(CCC1(C(=O)N[C@@H](CCO)C2=CC=C(C=C2)Cl)N)C3=NC=NC4=C3C=CN4 [Capivasertib] (first compound max 1 µM, 7x7, partner max 3 µM) | 0.0001 | 0.0349 | 0.0123 | 0.005 | -0.0269 | 0.0059 | -0.0116 | -0.0163 | -0.0181 | -0.0194 | -0.0061 | -0.012 | -0.0147 | -0.0001 | -0.0587 | 0.928 | 0.338 | 0.32 | 0.281 | 0.631
3 | Cc1c2c(nn1C)CSCc1cc(n(C)n1)CSc1cc(c3ccccc3c1)OCCCc1c(C(=O)O)n(C)c3c-2c(Cl)ccc13 [AZD5991] + CN(C)CCCOc1ccc(-c2ccc3ncc4c(c3c2)n(C2CCOCC2)c(=O)n4C)cn1 [AZD0156] (first compound max 1 µM, 7x7, partner max 1 µM) | 0.0293 | -0.0285 | 0.0896 | 0.0298 | -0.0251 | -0.0266 | 0.0316 | -0.0036 | -0.0619 | -0.0009 | -0.0018 | -0.0091 | -0.0302 | 0.0313 | -0.0245 | 0.756 | 0.225 | 0.286 | 0.162 | 0.345
4 | COc1cccc2c1C(=O)c1c(O)c3c(c(O)c1C2=O)C[C@@](O)(C(=O)CO)C[C@@H]3O[C@H]1C[C@H](N)[C@H](O)[C@H](C)O1 [Doxorubicin] + Cc1cc2ncnn2cc1Nc1ncc2c(n1)n(C1CCOCC1)c(=O)n2C [AZD7648] (first compound max 1 µM, 7x7, partner max 10 µM) | 0.0816 | 0.0553 | 0.0736 | -0.0164 | 0.103 | 0.0511 | -0.0513 | 0.046 | 0.0176 | 0.0242 | 0.0332 | -0.0357 | 0.0336 | 0.0506 | -0.0042 | 0.297 | 0.619 | 0.6 | 0.87 | 0.593
5 | Cc1c2c(nn1C)CSCc1cc(n(C)n1)CSc1cc(c3ccccc3c1)OCCCc1c(C(=O)O)n(C)c3c-2c(Cl)ccc13 [AZD5991] + C[C@@H](Nc1cc(F)cc(F)c1)c1cc(C(=O)N(C)C)cc2c(=O)cc(N3CCOCC3)oc12 [AZD8186] (first compound max 1 µM, 7x7, partner max 3 µM) | 0.0129 | -0.109 | 0.0078 | -0.0149 | 0.0065 | 0.0387 | -0.007 | 0.0456 | -0.0129 | -0.0125 | -0.003 | 0.0126 | -0.0434 | 0.0087 | -0.0565 | 0.87 | 0.416 | 0.221 | 0.336 | 0.397
6 | Cn1cnc2c(F)c(Nc3ccc(Br)cc3Cl)c(C(=O)NOCCO)cc21 [Selumetinib] + C[C@@H]1COCCN1C2=NC(=NC(=C2)C3(CC3)[S@](=N)(=O)C)C4=C5C=CNC5=NC=C4 [AZD6738] (first compound max 10 µM, 7x7, partner max 10 µM) | -0.0537 | -0.0181 | 0.108 | -0.0387 | -0.0438 | 0.0113 | -0.0221 | -0.0496 | -0.0315 | -0.0243 | -0.0043 | -0.0261 | -0.0455 | 0.0038 | -0.0587 | 0.175 | 0.334 | 0.756 | 0.517 | 0.837
7 | CC1(C)CCC(CN2CCN(c3ccc(C(=O)NS(=O)(=O)c4ccc(NCC5CCOCC5)c([N+](=O)[O-])c4)c(Oc4cnc5[nH]ccc5c4)c3)CC2)=C(c2ccc(Cl)cc2)C1 [Venetoclax] + Cc1cc2ncnn2cc1Nc1ncc2c(n1)n(C1CCOCC1)c(=O)n2C [AZD7648] (first compound max 1 µM, 7x7, partner max 10 µM) | -0.0124 | -0.0896 | -0.0517 | -0.0713 | -0.0205 | -0.0354 | -0.022 | 0.0019 | -0.0296 | -0.0128 | -0.0144 | -0.0256 | -0.042 | -0.0396 | -0.0609 | 0.273 | 0.294 | 0.2 | 0.313 | 0.206
8 | CC1(C)CCC(CN2CCN(c3ccc(C(=O)NS(=O)(=O)c4ccc(NCC5CCOCC5)c([N+](=O)[O-])c4)c(Oc4cnc5[nH]ccc5c4)c3)CC2)=C(c2ccc(Cl)cc2)C1 [Venetoclax] + C[C@@H](Nc1cc(F)cc(F)c1)c1cc(C(=O)N(C)C)cc2c(=O)cc(N3CCOCC3)oc12 [AZD8186] (first compound max 1 µM, 7x7, partner max 3 µM) | -0.023 | -0.0369 | -0.0385 | -0.0042 | -0.0336 | -0.0326 | -0.0304 | -0.0195 | 0.0007 | -0.0358 | -0.0368 | -0.0408 | -0.0546 | 0.009 | -0.0556 | 0.434 | 0.341 | 0.129 | 0.256 | 0.109
9 | Cc1c2c(nn1C)CSCc1cc(n(C)n1)CSc1cc(c3ccccc3c1)OCCCc1c(C(=O)O)n(C)c3c-2c(Cl)ccc13 [AZD5991] + Cn1cnc2c(F)c(Nc3ccc(Br)cc3Cl)c(C(=O)NOCCO)cc21 [Selumetinib] (first compound max 1 µM, 7x7, partner max 3 µM) | 0.12 | 0.0415 | 0.0216 | 0.0483 | 0.0295 | -0.004 | -0.0361 | 0.0054 | -0.0456 | -0.0155 | 0.0506 | 0.102 | 0.0081 | 0.0143 | -0.0427 | 0.714 | 0.31 | 0.694 | 0.455 | 0.469
10 | NC1(C(=O)N[C@@H](CCO)c2ccc(Cl)cc2)CCN(c2ncnc3[nH]ccc23)CC1 [Capivasertib] + Cn1cnc2c(F)c(Nc3ccc(Br)cc3Cl)c(C(=O)NOCCO)cc21 [Selumetinib] (first compound max 10 µM, 7x7, partner max 10 µM) | 0.0877 | 0.0265 | -0.0162 | 0.0427 | 0.0993 | 0.0032 | -0.0428 | -0.133 | 0.0426 | -0.0064 | 0.0752 | -0.055 | 0.0009 | 0.0151 | -0.0111 | 0.246 | 0.551 | 0.849 | 0.555 | 0.924
11 | NC1(C(=O)N[C@@H](CCO)c2ccc(Cl)cc2)CCN(c2ncnc3[nH]ccc23)CC1 [Capivasertib] + CC(C)n1c(=O)n(C)c2cnc3cc(F)c(-c4ccc(OCCCN5CCCCC5)nc4)cc3c21 [AZD1390] (first compound max 10 µM, 7x7, partner max 0.3 µM) | -0.0885 | -0.0455 | -0.0842 | -0.133 | -0.0122 | -0.0537 | -0.045 | -0.0651 | -0.0969 | -0.0081 | -0.0278 | -0.0852 | -0.0512 | -0.0034 | -0.0724 | 0.256 | 0.323 | 0.392 | 0.325 | 0.621
12 | C[C@@H]1COCCN1c1cc(C2([S@](C)(=N)=O)CC2)nc(-c2ccnc3[nH]ccc23)n1 [AZD6738] + O=C(c1cc(Cc2n[nH]c(=O)c3ccccc23)ccc1F)N1CCN(C(=O)C2CC2)CC1 [Olaparib] (first compound max 10 µM, 7x7, partner max 10 µM) | 0.0381 | 0.0278 | 0.0283 | -0.0183 | 0.0381 | 0.0497 | 0.0569 | -0.0101 | 0 | -0.0082 | -0.0539 | -0.0358 | 0.0087 | -0.0054 | -0.0044 | 0.209 | 0.573 | 0.826 | 0.764 | 0.661
13 | CN(C)CCCOc1ccc(-c2ccc3ncc4c(c3c2)n(C2CCOCC2)c(=O)n4C)cn1 [AZD0156] + C[C@@H]1COCCN1C2=NC(=NC(=C2)C3(CC3)[S@](=N)(=O)C)C4=C5C=CNC5=NC=C4 [AZD6738] (first compound max 1 µM, 7x7, partner max 10 µM) | 0.0153 | -0.0619 | -0.0092 | 0.111 | 0.0477 | -0.0217 | 0.0196 | -0.031 | -0.0267 | -0.011 | -0.0039 | -0.0424 | -0.0384 | 0.0529 | -0.0315 | 0.427 | 0.561 | 0.88 | 0.644 | 0.696
14 | NC1(C(=O)N[C@@H](CCO)c2ccc(Cl)cc2)CCN(c2ncnc3[nH]ccc23)CC1 [Capivasertib] + C[C@@H]1COCCN1C2=NC(=NC(=C2)C3(CC3)[S@](=N)(=O)C)C4=C5C=CNC5=NC=C4 [AZD6738] (first compound max 10 µM, 7x7, partner max 10 µM) | 0.0077 | -0.0877 | -0.0497 | -0.0202 | -0.0137 | -0.0926 | -0.0228 | -0.128 | -0.0366 | 0.0014 | -0.0607 | -0.0216 | -0.0119 | -0.0208 | -0.0915 | 0.349 | 0.653 | 0.873 | 0.457 | 0.858
